Laboratory results reported in PMC7917639, “Nopol-Based Quinoline Derivatives as Antiplasmodial Agents” (Molecules, 2021).

Tested on: Human hepatocarcinoma cell line (Hep G2)
Assay: Cytotoxicity assay (MTT)
Format: cell-based
Conditions: SDS 0.1%, assay positive control

With `CCCCCCCCCCCCOS(=O)(=O)[O-].[Na+]` [SDS (0.1%)] the “Hep G2 percent viability” value was “^b 1%”.
